Assay results as given in PubChem BioAssay AID1918958 (Molecular Pharmacology Branch, DTP, NCI, 2023).

Test system: NCI-H196 complex spheroid viability
Assay: Anticancer human tumor NCI-H196 cell line growth inhibition [LSD1];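 note: spheroids exposed to agents for 7 days before readout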;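 for viability, T/C: 100% = DMSO vehicle control viability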
Conditions: for IC50: curve of first compound; for viability, T/C: stronger effect = lower value
From the text: Multicellular complex tumor spheroid response to LSD1 Inhibitor Iadademstat in combination with a variety of drugs and investigational agents in selected tumor cell lines
The current study was undertaken to assess response to LSD1 inhibitors in combination with standard-of-care drugs and investigational agents in solid tumor complex spheroid models as well as in the K-562 leukemia. Complex spheroids include a stromal component modeled by human endothelial cells (HUVEC) and fibroblasts modeled by human mesenchymal stem cells (MSCs). The concentration ranges selected for each drug and investigational agent were based upon clinically achievable concentrations if the clinical Cmax of the agent was known.
Compounds. The drugs and investigational agents used in this study are listed on Table 1. All of the agents used, including staurosporine (NSC755774) and gemcitabine (NSC613327), were obtained from the Developmental Therapeutics Program, NCI. FDA-approved anticancer drugs are available from the NCI at http://dtp.nci.nih.gov/branches/dscb/oncology_drugset_explanation.html. Drugs and investigational agents were >95% pure by proton nuclear magnetic resonance (NMR) and liquid chromatography/mass spectrometry (LC/MS). Stock solutions were prepared at 400x in DMSO, stored at -70 degrees C, and diluted in fresh medium prior to their use. The final concentration of DMSO in cell culture wells never exceeded 0.25% (v/v). The FDA-approved anticancer drug set is available from the Developmental Therapeutics Program at https://dtp.cancer.gov/organization/dscb/obtaining/available_plates.htm. All drugs and investigational agents were tested over a range starting from a high concentration at or near the clinical Cmax and decreasing in half-log increments. If the clinical Cmax for an agent had not been determined, the highest concentration tested was 10 microM.
Cell Lines. The patient-derived cancer cell (PDC) lines: 292921-168-R-J2-PDC, K24384-001-R-PDC, and 521955-158-R2-J5-PDC pancreatic carcinomas, 556581-035-R-J1 ovarian carcinoma, 324938-238-R-J1-PDC, 855422-203-R-J1-PDC and 883617-216-R-J1-PDC urothelial bladder carcinomas, 743489-274-T-PDC renal cell carcinoma, 138582-R-J1 Merkel cell tumor, K60290-347-R-J1 and K57222-313-R-J1-PDC glioblastomas, 653999-131-R-J2-PDC, LG0703-F948-PDC, and 349418-098-R-PDC non-small cell lung carcinomas, 885512-296-R-J2-PDC, 171881-019-R-J1-PDC breast carcinomas and 186277-243-T-J2-PDC and 233499-124-R-J2-PDC colon carcinomas were obtained from the NCI Patient-Derived Models Repository (PDMR, https://pdmr.cancer.gov). The established cell lines NCI/ADR-RES (RRID:CVCL_14520 and OVCAR-5 (RRID:CVCL_1628) ovarian carcinomas, 786-O (RRID:CVCL_1051) and A498 (RRID:CVCL_A498) renal cell carcinoma, NCI-H211 (ATCC, cat. CRL-5824; RRID:CVCL_1529), NCI-H196 (ATCC, cat. CRL-5823, RRID:CVCL_1509), SW 1271 (ATCC, cat. CRL-2177, RRID:CVCL_1716) and NCI-H1876 (ATCC, cat. CRL-5902, RRID:CVCL_1503) small cell lung carcinomas, MDA-MB-231 (RRID:CVCL_0062) and MDA-MB-468 (RRID:CVCL_0419)breast carcinomas (10-12). Pooled donor human umbilical vein endothelial cells (HUVEC, Lonza, cat. CC-2519) and human mesenchymal stem cells (hMSC, Lonza, cat. PT-2501) were purchased from Lonza (Walkersville, MD).
Cell Culture. All cells were maintained in an incubator at 37 degrees C and 5% CO2 with 95% humidity. The PDC lines were cultured according to standard operating procedures established by the NCI PDMR (https://pdmr.cancer.gov). Briefly all PDCs were thawed and cultured in Matrigel-coated flasks prepared with a working solution of 1X Ham's F-12 nutrient mix, without supplementation (Invitrogen, Waltham, MA, cat. 11765054), 100 U/mL penicillin-streptomycin (Invitrogen, cat. 15140122), and 2.5% Matrigel (Corning Inc., Corning, NY, cat. 354248) for the first three passages. […]

[1] = second compound 0.1 µM, first compound 0.00316 µM
[2] = second compound 0.1 µM, first compound 0.01 µM
[3] = second compound 0.1 µM, first compound 0.0316 µM
[4] = second compound 0.1 µM, first compound 0.1 µM
[5] = second compound 0.316 µM, first compound 0.00316 µM
[6] = second compound 0.316 µM, first compound 0.01 µM
[7] = second compound 0.316 µM, first compound 0.0316 µM
[8] = second compound 0.316 µM, first compound 0.1 µM
[9] = second compound 1 µM, first compound 0.00316 µM
[10] = second compound 1 µM, first compound 0.01 µM
[11] = second compound 1 µM, first compound 0.0316 µM
[12] = second compound 1 µM, first compound 0.1 µM
[13] = second compound 3.16 µM, first compound 0.00316 µM
[14] = second compound 3.16 µM, first compound 0.01 µM
[15] = second compound 3.16 µM, first compound 0.0316 µM
[16] = second compound 3.16 µM, first compound 0.1 µM
[17] = second compound 10 µM, first compound 0.00316 µM
[18] = second compound 10 µM, first compound 0.01 µM
[19] = second compound 10 µM, first compound 0.0316 µM
[20] = second compound 10 µM, first compound 0.1 µM

CC[C@@]1(O)C(=O)OCc2c1cc1n(c2=O)Cc2cc3c(CN(C)C)c(O)ccc3nc2-1 + NC1CC1c1ccc(-c2cccc(O)c2)cc1
IC50 (second compound 0.1 µM): > 100 nM | IC50 (second compound 0.316 µM): > 100 nM | IC50 (second compound 1 µM): > 100 nM | IC50 (second compound 3.16 µM): > 100 nM | IC50 (second compound 10 µM): > 100 nM | viability, T/C (second compound 0.1 µM, first compound 0.000316 µM): 95.1% | viability, T/C (second compound 0.1 µM, first compound 0.001 µM): 101% | viability, T/C [1]: 115% | viability, T/C [2]: 105% | viability, T/C [3]: 95.7% | viability, T/C [4]: 99.5% | viability, T/C (second compound 0.316 µM, first compound 0.000316 µM): 97.3% | viability, T/C (second compound 0.316 µM, first compound 0.001 µM): 104% | viability, T/C [5]: 102% | viability, T/C [6]: 109% | viability, T/C [7]: 109% | viability, T/C [8]: 95.9% | viability, T/C (second compound 1 µM, first compound 0.000316 µM): 92.4% | viability, T/C (second compound 1 µM, first compound 0.001 µM): 93.8% | viability, T/C [9]: 104% | viability, T/C [10]: 100% | viability, T/C [11]: 103% | viability, T/C [12]: 94.8% | viability, T/C (second compound 3.16 µM, first compound 0.000316 µM): 90.7% | viability, T/C (second compound 3.16 µM, first compound 0.001 µM): 95.3% | viability, T/C [13]: 92.2% | viability, T/C [14]: 101% | viability, T/C [15]: 91% | viability, T/C [16]: 82.6% | viability, T/C (second compound 10 µM, first compound 0.000316 µM): 88.8% | viability, T/C (second compound 10 µM, first compound 0.001 µM): 90.4% | viability, T/C [17]: 102% | viability, T/C [18]: 115% | viability, T/C [19]: 98.2% | viability, T/C [20]: 78.2%

COc1cc(C2c3cc4c(cc3C(OC3OC5COC(C)OC5C(O)C3O)C3COC(=O)C23)OCO4)cc(OC)c1O (stereo not given) + NC1CC1c1ccc(-c2cccc(O)c2)cc1
IC50 (second compound 0.1 µM): > 3000 nM | IC50 (second compound 0.316 µM): > 3000 nM | IC50 (second compound 1 µM): > 3000 nM | IC50 (second compound 3.16 µM): > 3000 nM | IC50 (second compound 10 µM): > 3000 nM | viability, T/C (second compound 0.1 µM, first compound 0.00949 µM): 95.2% | viability, T/C (second compound 0.1 µM, first compound 0.03 µM): 97% | viability, T/C (second compound 0.1 µM, first compound 0.0949 µM): 109% | viability, T/C (second compound 0.1 µM, first compound 0.3 µM): 101% | viability, T/C (second compound 0.1 µM, first compound 0.949 µM): 85.1% | viability, T/C (second compound 0.1 µM, first compound 3 µM): 69.1% | viability, T/C (second compound 0.316 µM, first compound 0.00949 µM): 98.5% | viability, T/C (second compound 0.316 µM, first compound 0.03 µM): 100% | viability, T/C (second compound 0.316 µM, first compound 0.0949 µM): 105% | viability, T/C (second compound 0.316 µM, first compound 0.3 µM): 102% | viability, T/C (second compound 0.316 µM, first compound 0.949 µM): 88.2% | viability, T/C (second compound 0.316 µM, first compound 3 µM): 65.1% | viability, T/C (second compound 1 µM, first compound 0.00949 µM): 90.9% | viability, T/C (second compound 1 µM, first compound 0.03 µM): 104% | viability, T/C (second compound 1 µM, first compound 0.0949 µM): 117% | viability, T/C (second compound 1 µM, first compound 0.3 µM): 121% | viability, T/C (second compound 1 µM, first compound 0.949 µM): 84.1% | viability, T/C (second compound 1 µM, first compound 3 µM): 61.8% | viability, T/C (second compound 3.16 µM, first compound 0.00949 µM): 92.8% | viability, T/C (second compound 3.16 µM, first compound 0.03 µM): 92.4% | viability, T/C (second compound 3.16 µM, first compound 0.0949 µM): 104% | viability, T/C (second compound 3.16 µM, first compound 0.3 µM): 91.4% | viability, T/C (second compound 3.16 µM, first compound 0.949 µM): 76.9% | viability, T/C (second compound 3.16 µM, first compound 3 µM): 53.7% | viability, T/C (second compound 10 µM, first compound 0.00949 µM): 90% | viability, T/C (second compound 10 µM, first compound 0.03 µM): 101% | viability, T/C (second compound 10 µM, first compound 0.0949 µM): 102% | viability, T/C (second compound 10 µM, first compound 0.3 µM): 90.8% | viability, T/C (second compound 10 µM, first compound 0.949 µM): 78.5% | viability, T/C (second compound 10 µM, first compound 3 µM): 59.9%

Nc1ncn(C2CC(O)C(CO)O2)c(=O)n1 (stereo not given) + NC1CC1c1ccc(-c2cccc(O)c2)cc1
IC50 (second compound 0.1 µM): > 1000 nM | IC50 (second compound 0.316 µM): > 1000 nM | IC50 (second compound 1 µM): > 1000 nM | IC50 (second compound 3.16 µM): > 1000 nM | IC50 (second compound 10 µM): > 1000 nM | viability, T/C [1]: 98.6% | viability, T/C [2]: 99.9% | viability, T/C [3]: 99.7% | viability, T/C [4]: 87.9% | viability, T/C (second compound 0.1 µM, first compound 0.316 µM): 99.5% | viability, T/C (second compound 0.1 µM, first compound 1 µM): 97.9% | viability, T/C [5]: 97.5% | viability, T/C [6]: 95.6% | viability, T/C [7]: 98.9% | viability, T/C [8]: 89% | viability, T/C (second compound 0.316 µM, first compound 0.316 µM): 94.2% | viability, T/C (second compound 0.316 µM, first compound 1 µM): 97% | viability, T/C [9]: 98.4% | viability, T/C [10]: 100% | viability, T/C [11]: 98.7% | viability, T/C [12]: 91.2% | viability, T/C (second compound 1 µM, first compound 0.316 µM): 96.4% | viability, T/C (second compound 1 µM, first compound 1 µM): 97.7% | viability, T/C [13]: 96.4% | viability, T/C [14]: 95% | viability, T/C [15]: 98.1% | viability, T/C [16]: 88.9% | viability, T/C (second compound 3.16 µM, first compound 0.316 µM): 106% | viability, T/C (second compound 3.16 µM, first compound 1 µM): 95.9% | viability, T/C [17]: 105% | viability, T/C [18]: 106% | viability, T/C [19]: 96.3% | viability, T/C [20]: 98.4% | viability, T/C (second compound 10 µM, first compound 0.316 µM): 95.4% | viability, T/C (second compound 10 µM, first compound 1 µM): 95.2%
